Reference: paper PMC9775409, “Identification, Screening, and Comprehensive Evaluation of Novel DPP-IV Inhibitory Peptides from the Tilapia Skin Gelatin Hydrolysate Produced Using Ginger Protease” (Biomolecules, 2022)
Like-named read-outs stand apart in the source and are kept apart here. Non-standard residues stand in square brackets, D forms with d. Residues, ends and D or L forms follow the SMILES beside them. No end group written: not given here. Hyp = O=C(O)[C@@H]1C[C@@H](O)CN1

How the values were obtained:
[1] = in vivo, po
Experimental: (§1) Blood was collected at 0.5 and 1 h, after oral administration, from the abdominal aorta and centrifuged (3000× g, 5 min) to acquire plasma. Next, the proteins were precipitated by adding three volumes of 100% ethanol and removed using centrifugation. A volume of 6 μL of supernatant were injected into the LC-MS/MS system, as previously described [16].

[2] = tested on: DPP-IV; parameters: method as in PMID 24650211; conditions: in words; cited from earlier work
[3] = Oral administration in rats, LC-MS/MS identification of peptides in plasma; conditions: for Identification in rat plasma, 0.5 h: 0.5 h after oral administration of GPXGPPGPGP; for Identification in rat plasma, 0.5 h / Identification in rat plasma, 1 h: blood from abdominal aorta, ethanol protein precipitation; for Identification in rat plasma, 1 h: 1 h after oral administration of GPXGPPGPGP; for Identified in plasma at 0.5 h: rat plasma 0.5 h after oral administration of GPXGPPGPGP; for Identified in plasma at 0.5 h / Identified in plasma at 1 h: in words; for Identified in plasma at 1 h: rat plasma 1 h after oral administration of GPXGPPGPGP
Experimental: as §1

[4] = tested on: Caco-2 cell monolayer; conditions: cited from earlier work

Compound | Identification in rat plasma, 0.5 h [1] | Identification in rat plasma, 1 h [1] | Identified in plasma at 1 h ([1]; rat) | Inhibitory effect against DPP-IV [2] | Identification in rat plasma, 0.5 h [3] | Identification in rat plasma, 1 h [3] | Identified in plasma at 0.5 h [3] | Identified in plasma at 1 h [3] | Passage through the Caco-2 cell monolayer [4]
NCC(=O)N1CCC[C@H]1C(=O)N1C[C@H](O)C[C@H]1C(=O)O [GPX, Gly-Pro-Hyp] (H-Gly-Pro-[Hyp]-OH) | + | − | not at 1 h | inhibitory effect against DPP-IV |  |  |  |  | 
O=C(O)[C@@H]1C[C@@H](O)CN1C(=O)[C@@H]1CCCN1 [PX, Pro-Hyp] (H-Pro-[Hyp]-OH) |  |  |  | not inhibitory against DPP-IV | + | − | identified in plasma at 0.5 h | not at 1 h | 
O=C(O)CNC(=O)[C@@H]1C[C@@H](O)CN1C(=O)[C@@H]1CCCN1 [PXG, Pro-Hyp-Gly] (H-Pro-[Hyp]-Gly-OH) |  |  |  |  | + | − | identified in plasma at 0.5 h | not at 1 h | 
GA[Hyp]GL[Hyp]GP |  |  |  |  |  |  |  |  | pass through the Caco-2 cell monolayer by paracellular diffusion
